Experimental data taken from patent US10399950B2, “Substituted amino azoles as plant growth regulators” (SYNGENTA PARTICIPATIONS AG, priority 2013, dated 2019).

Legend:
[1] = target: T1, Arabidopsis BIN2 kinase (Uniprot Q39011), His6-BIN2 (Arabidopsis thaliana, UniProt Q39011); test: In vitro assay for inhibition of plant GSK3/shaggy-like kinase activity (ADP-Glo); assay type: biochemical; conditions: compounds at 5 μM; 5 μM ATP; myelin basic protein substrate; 1 h at 20° C.; triplicate; read-out: inhibition of the activity of His6-BIN2 relative to the solvent vehicle control
T1 construct: made in house; host or cells: E. coli BL21
T1 sequence (Q39011 1-380): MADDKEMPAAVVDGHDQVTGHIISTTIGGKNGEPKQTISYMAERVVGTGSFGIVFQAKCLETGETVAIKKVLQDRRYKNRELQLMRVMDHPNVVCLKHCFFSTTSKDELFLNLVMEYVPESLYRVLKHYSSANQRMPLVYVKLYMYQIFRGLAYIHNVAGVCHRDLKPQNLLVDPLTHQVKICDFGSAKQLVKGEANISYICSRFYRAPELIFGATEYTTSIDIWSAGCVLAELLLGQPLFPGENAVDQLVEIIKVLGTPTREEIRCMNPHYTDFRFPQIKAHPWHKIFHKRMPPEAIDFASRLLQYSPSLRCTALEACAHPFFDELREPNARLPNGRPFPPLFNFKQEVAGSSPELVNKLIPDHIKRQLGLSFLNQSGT
Method: Arabidopsis BIN2 kinase (Uniprot Q39011) was produced in E. coli BL21 as an N-terminal hexahistidine fusion protein. In vitro kinase assays were performed by incubating 50 ng His6-BIN2 protein with 5 μg myelin basic protein (Sigma-Aldrich) as substrate and 5 μM ATP as co-substrate in reaction buffer consisting of 40 mM Tris-HCl, 20 mM MgCl2 and 0.1 mg/mL bovine serum albumin in a final reaction volume of 50 μl. Enzyme activity was assessed in the absence and presence of compounds (described in Tables A and B) at 5 μM by measuring the level of ADP produced after incubation for 1 h at 20° C. using an enzyme-coupled bioluminescent assay (ADP-Glo, Promega Corp.). The experiment was performed in triplicate and principaly on the acid form (as it the active A1).

[2] = test system: Wheat (Triticum aestivum) seeds of the variety Arina; test: Wheat assay: plant (root and shoot) area and curliness of the roots; assay type: in vivo; conditions: seeds in pouches with 10 mL compound solution; scanned twelve days after sowing/application
Method: Two bioassays were developed in order to assay the activity of the compounds of the present invention. In the first assay, the activity of the compound was quantified in beans based on its effect on the elongation of the petiole of the second leaf. In the second assay, the compound's effect on the root growth of wheat was determined. The test compounds were dissolved in small volumes of dimethyl sulfoxide and diluted to the appropriate concentration with water. Wheat (Triticum aestivum) seeds of the variety Arina were sown in pouches (14.7×13.2 cm) containing 10 mL of the appropriate compound solution. The pouches were stored at 17° C. for three days to enable the seeds to germinate. Plants were then stored at 5° C. Twelve days after sowing/application, plants were removed from the pouches and scanned. The effect of the compounds was quantified by determining plant (root and shoot) area and curliness of the roots (curliness is an indicator of brassinosteroid-type activity).

| SMILES | inhibition at 5 µM [1] | curliness of the roots (indicator of brassinosteroid-type activity) [2] | melting point |
| --- | --- | --- | --- |
| N#Cc1cnc(NC(=O)CCC(=O)O)s1 [A5, 4-[(5-cyanothiazol-2-yl)amino]-4-oxo-butanoic acid] | ≥ 20% | curly root phenotype | – |
| COC(=O)CCC(=O)Nc1ncc(C#N)s1 [A1, Methyl 4-[(5-cyanothiazol-2-yl)amino]-4-oxo-butanoate] | – | curly root phenotype | 118 to 119 °C |
